Data: US7687643B2, “Process for preparing 3,3-dimethylindolines” (Amgen Inc., priority 2001, dated 2010)

System: Human Umbilical Vein Endothelial cells (VEGF-stimulated)
Test: HUVEC proliferation assay, VEGF-stimulated
Assay type: cell-based
Settings: VEGF 50 ng/mL, 72 h, CyQuant, read-out: inhibited VEGF-stimulated HUVEC proliferation at a level
Method: Human Umbilical Vein Endothelial cells are purchased from Clonetics, Inc., as cryopreserved cells harvested from a pool of donors. These cells, at passage 1, are thawed and expanded in EBM-2 complete medium, until passage 2 or 3. The cells are trypsinized, washed in DMEM+10% FBS+antibiotics, and spun at 1000 rpm for 10 min. Prior to centrifugation of the cells, a small amount is collected for a cell count. After centrifugation, the medium is discarded, and the cells are resuspended in the appropriate volume of DMEM+10% FBS+antibiotics to achieve a concentration of 3×10^5 cells/mL. Another cell count is performed to confirm the cell concentration. The cells are diluted to 3×10^4 cells/mL in DMEM+10% FBS+antibiotics, and 100 μL of cells are added to a 96-well plate. The cells are incubated at 37° C. for 22 h.
Prior to the completion of the incubation period, compound dilutions are prepared. Five-point, five-fold serial dilutions are prepared in DMSO, at concentrations 400-fold greater than the final concentrations desired. 2.5 μL of each compound dilution are diluted further in a total of 1 mL DMEM+10% FBS+antibiotics (400× dilution). Medium containing 0.25% DMSO is also prepared for the 0 μM compound sample. At the 22-hour timepoint, the medium is removed from the cells, and 100 μL of each compound dilution is added. The cells are incubated at 37° C. for 2-3 h.
During the compound pre-incubation period, the growth factors are diluted to the appropriate concentrations. Solutions of DMEM+10% FBS+antibiotics, containing either VEGF or bFGF at the following concentrations: 50, 10, 2, 0.4, 0.08, and 0 ng/mL are prepared. For the compound-treated cells, solutions of VEGF at 550 ng/mL or bFGF at 220 ng/mL for 50 ng/mL or 20 ng/mL final concentrations, respectively, are prepared since 10 μL of each will be added to the cells (110 μL final volume). At the appropriate time after adding the compounds, the growth factors are added. VEGF is added to one set of plates, while bFGF is added to another set of plates. For the growth factor control curves, the media on wells B4-G6 of plates 1 and 2 are replaced with media containing VEGF or bFGF at the varying concentrations (50-0 ng/mL). The cells are incubated at 37° C. for an additional 72 h.
At the completion of the 72 h incubation period, the medium is removed, and the cells are washed twice with PBS. After the second wash with PBS, the plates are tapped gently to remove excess PBS, and the cells are placed at −70° C. for at least 30 min. The cells are thawed and analyzed using the CyQuant fluorescent dye (Molecular Probes C-7026), following the manufacturer's recommendations. The plates are read on a Victor/Wallac 1420 workstation at 485 nm/530 nm (excitation/emission). Raw data are collected and analyzed using a 4-parameter fit equation in XLFit. IC50 values are then determined.

Compound | IC50 [nM]
CN(C)CC(=O)N1CC(C)(C)c2ccc(NC(=O)c3cccnc3NCc3ccnc4ccccc34)cc21 [Example 1030, N-(1-(N,N-Dimethylglycyl)-3,3-dimethyl-2,3-dihydro-1H-indol-6-yl)-2-((4-quinolinylmethyl)amino)-3-pyridinecarboxamide] | < 50
CS(=O)(=O)NCCOc1cc(NC(=O)c2cccnc2NCc2ccncc2)ccc1C(F)(F)C(F)(F)F [Example 1031, N-(3-((2-((Methylsulfonyl)amino)ethyl)oxy)-4-(pentafluoroethyl)phenyl)-2-((4-pyridinylmethyl)amino)-3-pyridinecarboxamide] | < 50
CS(=O)(=O)NCCOc1cc(NC(=O)c2cccnc2NCc2ccncc2)ccc1C(F)(F)F [Example 1032, N-(3-((2-((Methylsulfonyl)amino)ethyl)oxy)-4-(trifluoromethyl)phenyl)-2-((4-pyridinylmethyl)amino)-3-pyridinecarboxamide] | < 50
CNc1nccc(CNc2ncccc2C(=O)Nc2ccc(C(F)(F)F)c(OCCNS(C)(=O)=O)c2)n1 [Example 1033, 2-(((2-(Methylamino)-4-pyrirnidinyl)methyl)amino)-N-(3-((2-((methylsulfonyl)amino)ethyl)oxy)-4-(trifluoromethyl)phenyl)-3-pyridinecarboxamide] | < 50
CNc1nccc(CNc2ncccc2C(=O)Nc2ccc3c(c2)NC(=O)C3(C(F)(F)F)C(F)(F)F)n1 [Example 1036, 2-(((2-(Methylamino)-4-pyrimidinyl)methyl)amino)-N-(2-oxo-3,3-bis(trifluoromethyl)-2,3-dihydro-1H-indol-6-yl)-3-pyridinecarboxamide] | < 50
CNc1nccc(CNc2ncccc2C(=O)Nc2ccc3c(c2)CNCC3(C)C)n1 [Example 1038, N-(4,4-Dimethyl-1,2,3,4-tetrahydro-7-isoquinolinyl)-2-(((2-(methylamino)-4-pyrimidinyl)methyl)amino)-3-pyridinecarboxamide] | < 50
CNc1nccc(CNc2ncccc2C(=O)Nc2ccc3c(c2)N(C(=O)CN(C)C)CC3(C)C)n1 [Example 1039, N-(1-(N,N-Dimethylglycyl)-3,3-dimethyl-2,3-dihydro-1H-indol-6-yl)-2-(((2-(methylamino)-4-pyrimidinyl)methyl)amino)-3-pyridinecarboxamide] | < 50
CNc1nccc(CNc2ncccc2C(=O)Nc2ccc3c(c2)NCC3(C)C)n1 [Example 1040, N-(3,3-Dimethyl-2,3-dihydro-1H-indol-6-yl)-2-(((2-(methylamino)-4-pyrimidinyl)methyl)amino)-3-pyridinecarboxamide] | < 50
CNc1nccc(CNc2ncccc2C(=O)Nc2ccc3c(c2)CN(C)CC3(C)C)n1 [Example 1041, 2-(((2-(methylamino)-4-pyrimidinyl)methyl)amino)-N-(2,4,4-trimethyl-1,2,3,4-tetrahydro-7-isoquinolinyl)-3-pyridinecarboxamide] | < 50
CNc1nccc(CNc2ncccc2C(=O)Nc2ccc(C(C)(C)C3CCN(C)CC3)cc2)n1 [Example 1043, 2-(((2-(methylamino)-4-pyrimidinyl)methyl)amino)-N-(4-(1-methyl-1-(1-methyl-4-piperidinyl)ethyl)phenyl)-3-pyridinecarboxamide] | < 50
CNc1nccc(CNc2ncccc2C(=O)Nc2cc(OC[C@H]3CCCN3C)cc(C(F)(F)F)c2)n1 [Example 1044, 2-(((2-(methylamino)-4-pyrimidinyl)methyl)amino)-N-(3-((((2R)-1-methyl-2-pyrrolidinyl)methyl)oxy)-5-(trifluoromethyl)phenyl)-3-pyridinecarboxamide] | < 50
CNc1nccc(CNc2ncccc2C(=O)Nc2ccc3c(c2)N(C(C)=O)CC3(C)C)n1 [Example 1045, N-(1-acetyl-3,3-dimethyl-2,3-dihydro-1H-indol-6-yl)-2-(((2-(methylamino)-4-pyrimidinyl)methyl)amino)-3-pyridinecarboxamide] | < 50
COc1nccc(CNc2ncccc2C(=O)Nc2ccc3c(c2)N(C(C)=O)CC3(C)C)n1 [Example 1046, N-(1-acetyl-3,3-dimethyl-2,3-dihydro-1H-indol-6-yl)-2-(((2-(methyloxy)-4-pyrimidinyl)methyl)amino)-3-pyridinecarboxamide] | < 50
COc1nccc(CNc2ncccc2C(=O)Nc2cc(OC[C@@H]3CCCN3C)cc(C(F)(F)F)c2)n1 [Example 1047, 2-(((2-(methyloxy)-4-pyrimidinyl)methyl)amino)-N-(3-((((2S)-1-methyl-2-pyrrolidinyl)methyl)oxy)-5-(trifluoromethyl)phenyl)-3-pyridinecarboxamide] | < 50
CNc1cc(CNc2ncccc2C(=O)Nc2ccc3c(c2)N(S(C)(=O)=O)CC3(C)C)ccn1 [Example 1058, N-(3,3-dimethyl-1-(methylsulfonyl)-2,3-dihydro-1H-indol-6-yl)-2-(((2-(methylamino)-4-pyridinyl)methyl)amino)-3-pyridinecarboxamide] | < 50
CC1(C)CN(S(C)(=O)=O)c2cc(NC(=O)c3cccnc3NCc3ccnc(N)c3)ccc21 [Example 1059, 2-(((2-amino-4-pyridinyl)methyl)amino)-N-(3,3-dimethyl-1-(methylsulfonyl)-2,3-dihydro-1H-indol-6-yl)-3-pyridinecarboxamide] | < 50
CNc1nccc(CNc2ncccc2C(=O)Nc2ccc3c(c2)N(S(C)(=O)=O)CC3(C)C)n1 [Example 1060, N-(3,3-dimethyl-1-(methylsulfonyl)-2,3-dihydro-1H-indol-6-yl)-2-(((2-(methylamino)-4-pyrimidinyl)methyl)amino)-3-pyridinecarboxamide] | < 50
CC1(C)CNCc2cc(NC(=O)c3cccnc3NCc3ccc4ncccc4c3)ccc21 [Example 1061, N-(4,4-dimethyl-1,2,3,4-tetrahydro-7-isoquinolinyl)-2-((6-quinolinylmethyl)amino)-3-pyridinecarboxamide] | < 50
COc1cc(CNc2ncccc2C(=O)Nc2ccc(C(C)(C)C)c(OC[C@@H]3CCCN3)c2)ccn1 [Example 1067, N-(4-(1,1-dimethylethyl)-3-(((2S)-2-pyrrolidinylmethyl)oxy)phenyl)-2-(((2-(methyloxy)-4-pyridinyl)methyl)amino)-3-pyridinecarboxamide] | < 50
CC1(C)CN(S(C)(=O)=O)c2cc(NC(=O)c3cccnc3NCc3ccncc3)ccc21 [Example 1068, N-(3,3-dimethyl-1-(methylsulfonyl)-2,3-dihydro-1H-indol-6-yl)-2-((4-pyridinylmethyl)amino)-3-pyridinecarboxamide] | < 50
CN(C)CC(=O)Nc1cc(NC(=O)c2cccnc2NCc2ccnc3ccccc23)ccc1C(C)(C)C [Example 1072, N-(4-(1,1-dimethylethyl)-3-((N,N-dimethylglycyl)amino)phenyl)-2-((4-quinolinylmethyl)amino)-3-pyridinecarboxamide] | < 50
COc1nccc(CNc2ncccc2C(=O)Nc2ccc(C(C)(C)C)c(NC(=O)CN(C)C)c2)n1 [Example 1074, N-(4-(1,1-dimethylethyl)-3-((N,N-dimethylglycyl)amino)phenyl)-2-(((2-(methyloxy)-4-pyrimidinyl)methyl)amino)-3-pyridinecarboxamide] | < 50
